The values below come from PubChem BioAssay AID1963837 (Molecular Pharmacology Branch, DTP, NCI, 2024).

Structures are written as SMILES.
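Note: spheroids exposed to drugs for seven days before readout.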

For one test, the system named is 843126-344-R-J1-PDC complex spheroid viability. As to the kind of experiment: Anticancer human tumor 843126-344-R-J1-PDC patient-derived melanoma cell line growth inhibition [POLQ]. As to conditions: second compound 0.0316 µM; first compound 1 µM; stronger effect = lower value. In outline: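 Growth inhibition in 3D: complex spheroids (tumor PDC, HUVEC, MSC) treated with POLQ inhibitor combinations; where Cmax unknown, highest tested concentration 10 microM, except SN-38 at 1 microM.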
As to `CNCc1ccc(-c2[nH]c3cc(F)cc4c3c2CCNC4=O)cc1` + Nc1ccc(C#CCN(C(=O)Cc2ncc(C(F)(F)F)cc2C(F)(F)F)c2ccc(F)cc2)nn1, the viability, T/C was 108%.

With `O=C(c1cc(Cc2n[nH]c(=O)c3ccccc23)ccc1F)N1CCN(C(=O)C2CC2)CC1` + Nc1ccc(C#CCN(C(=O)Cc2ncc(C(F)(F)F)cc2C(F)(F)F)c2ccc(F)cc2)nn1, the viability, T/C is 90%.

The test is the same for the next values; noted with them: second compound 0.0316 µM; first compound 3.16 µM; stronger effect = lower value.
Regarding `CNCc1ccc(-c2[nH]c3cc(F)cc4c3c2CCNC4=O)cc1` + Nc1ccc(C#CCN(C(=O)Cc2ncc(C(F)(F)F)cc2C(F)(F)F)c2ccc(F)cc2)nn1, the viability, T/C is 98.5%.

In the case of `O=C(c1cc(Cc2n[nH]c(=O)c3ccccc23)ccc1F)N1CCN(C(=O)C2CC2)CC1` + Nc1ccc(C#CCN(C(=O)Cc2ncc(C(F)(F)F)cc2C(F)(F)F)c2ccc(F)cc2)nn1, the viability, T/C is 92.1%.

The test is the same for the next values; noted with them: second compound 0.0316 µM; first compound 10 µM; stronger effect = lower value.
Regarding `CNCc1ccc(-c2[nH]c3cc(F)cc4c3c2CCNC4=O)cc1` + Nc1ccc(C#CCN(C(=O)Cc2ncc(C(F)(F)F)cc2C(F)(F)F)c2ccc(F)cc2)nn1, the viability, T/C was 83.4%.

`O=C(c1cc(Cc2n[nH]c(=O)c3ccccc23)ccc1F)N1CCN(C(=O)C2CC2)CC1` + Nc1ccc(C#CCN(C(=O)Cc2ncc(C(F)(F)F)cc2C(F)(F)F)c2ccc(F)cc2)nn1: the viability, T/C is 75.4%.

The same test, now with this note: second compound 0.1 µM; first compound 0.00316 µM; stronger effect = lower value.
For `C=CCn1c(=O)c2cnc(Nc3ccc(N4CCN(C)CC4)cc3)nc2n1-c1cccc(C(C)(C)O)n1` + Nc1ccc(C#CCN(C(=O)Cc2ncc(C(F)(F)F)cc2C(F)(F)F)c2ccc(F)cc2)nn1, the viability, T/C is 91.9%.

Take `CCc1c2c(nc3ccc(O)cc13)-c1cc3c(c(=O)n1C2)COC(=O)[C@]3(O)CC` + Nc1ccc(C#CCN(C(=O)Cc2ncc(C(F)(F)F)cc2C(F)(F)F)c2ccc(F)cc2)nn1: the viability, T/C was 64.3%.

Still in this test, the particulars now being: second compound 0.1 µM; first compound 0.01 µM; stronger effect = lower value.
Consider `C=CCn1c(=O)c2cnc(Nc3ccc(N4CCN(C)CC4)cc3)nc2n1-c1cccc(C(C)(C)O)n1` + Nc1ccc(C#CCN(C(=O)Cc2ncc(C(F)(F)F)cc2C(F)(F)F)c2ccc(F)cc2)nn1, for which the viability, T/C is 92.1%.

As for `CCc1c2c(nc3ccc(O)cc13)-c1cc3c(c(=O)n1C2)COC(=O)[C@]3(O)CC` + Nc1ccc(C#CCN(C(=O)Cc2ncc(C(F)(F)F)cc2C(F)(F)F)c2ccc(F)cc2)nn1, the viability, T/C was 47.4%.

Still in this test, the particulars now being: second compound 0.1 µM; first compound 0.0316 µM; stronger effect = lower value.
In the case of `C=CCn1c(=O)c2cnc(Nc3ccc(N4CCN(C)CC4)cc3)nc2n1-c1cccc(C(C)(C)O)n1` + Nc1ccc(C#CCN(C(=O)Cc2ncc(C(F)(F)F)cc2C(F)(F)F)c2ccc(F)cc2)nn1, the viability, T/C was 104%.

Regarding `CCc1c2c(nc3ccc(O)cc13)-c1cc3c(c(=O)n1C2)COC(=O)[C@]3(O)CC` + Nc1ccc(C#CCN(C(=O)Cc2ncc(C(F)(F)F)cc2C(F)(F)F)c2ccc(F)cc2)nn1, the viability, T/C was 59%.

On to `CNCc1ccc(-c2[nH]c3cc(F)cc4c3c2CCNC4=O)cc1` + Nc1ccc(C#CCN(C(=O)Cc2ncc(C(F)(F)F)cc2C(F)(F)F)c2ccc(F)cc2)nn1, for which the viability, T/C was 96.4%.

Take `O=C(c1cc(Cc2n[nH]c(=O)c3ccccc23)ccc1F)N1CCN(C(=O)C2CC2)CC1` + Nc1ccc(C#CCN(C(=O)Cc2ncc(C(F)(F)F)cc2C(F)(F)F)c2ccc(F)cc2)nn1: the viability, T/C was 90.1%.

The same test, now with this note: second compound 0.1 µM; first compound 0.1 µM; stronger effect = lower value.
Take `C=CCn1c(=O)c2cnc(Nc3ccc(N4CCN(C)CC4)cc3)nc2n1-c1cccc(C(C)(C)O)n1` + Nc1ccc(C#CCN(C(=O)Cc2ncc(C(F)(F)F)cc2C(F)(F)F)c2ccc(F)cc2)nn1: the viability, T/C was 85.9%.

Consider `CCc1c2c(nc3ccc(O)cc13)-c1cc3c(c(=O)n1C2)COC(=O)[C@]3(O)CC` + Nc1ccc(C#CCN(C(=O)Cc2ncc(C(F)(F)F)cc2C(F)(F)F)c2ccc(F)cc2)nn1, for which the viability, T/C is 65.8%.

Regarding `CNCc1ccc(-c2[nH]c3cc(F)cc4c3c2CCNC4=O)cc1` + Nc1ccc(C#CCN(C(=O)Cc2ncc(C(F)(F)F)cc2C(F)(F)F)c2ccc(F)cc2)nn1, the viability, T/C was 103%.

Regarding `O=C(c1cc(Cc2n[nH]c(=O)c3ccccc23)ccc1F)N1CCN(C(=O)C2CC2)CC1` + Nc1ccc(C#CCN(C(=O)Cc2ncc(C(F)(F)F)cc2C(F)(F)F)c2ccc(F)cc2)nn1, the viability, T/C is 93.5%.

The test is the same for the next values; noted with them: second compound 0.1 µM; first compound 0.316 µM; stronger effect = lower value.
As to `C=CCn1c(=O)c2cnc(Nc3ccc(N4CCN(C)CC4)cc3)nc2n1-c1cccc(C(C)(C)O)n1` + Nc1ccc(C#CCN(C(=O)Cc2ncc(C(F)(F)F)cc2C(F)(F)F)c2ccc(F)cc2)nn1, the viability, T/C was 86.5%.

Consider `CCc1c2c(nc3ccc(O)cc13)-c1cc3c(c(=O)n1C2)COC(=O)[C@]3(O)CC` + Nc1ccc(C#CCN(C(=O)Cc2ncc(C(F)(F)F)cc2C(F)(F)F)c2ccc(F)cc2)nn1, for which the viability, T/C was 65%.

On to `CNCc1ccc(-c2[nH]c3cc(F)cc4c3c2CCNC4=O)cc1` + Nc1ccc(C#CCN(C(=O)Cc2ncc(C(F)(F)F)cc2C(F)(F)F)c2ccc(F)cc2)nn1, for which the viability, T/C was 101%.

As for `O=C(c1cc(Cc2n[nH]c(=O)c3ccccc23)ccc1F)N1CCN(C(=O)C2CC2)CC1` + Nc1ccc(C#CCN(C(=O)Cc2ncc(C(F)(F)F)cc2C(F)(F)F)c2ccc(F)cc2)nn1, the viability, T/C was 86.9%.

Staying with this test, now noted: second compound 0.1 µM; first compound 1 µM; stronger effect = lower value.
As to `C=CCn1c(=O)c2cnc(Nc3ccc(N4CCN(C)CC4)cc3)nc2n1-c1cccc(C(C)(C)O)n1` + Nc1ccc(C#CCN(C(=O)Cc2ncc(C(F)(F)F)cc2C(F)(F)F)c2ccc(F)cc2)nn1, the viability, T/C was 77.6%.

On to `CCc1c2c(nc3ccc(O)cc13)-c1cc3c(c(=O)n1C2)COC(=O)[C@]3(O)CC` + Nc1ccc(C#CCN(C(=O)Cc2ncc(C(F)(F)F)cc2C(F)(F)F)c2ccc(F)cc2)nn1, for which the viability, T/C is 47.9%.

Turning to `CNCc1ccc(-c2[nH]c3cc(F)cc4c3c2CCNC4=O)cc1` + Nc1ccc(C#CCN(C(=O)Cc2ncc(C(F)(F)F)cc2C(F)(F)F)c2ccc(F)cc2)nn1, the viability, T/C is 95%.

Turning to `O=C(c1cc(Cc2n[nH]c(=O)c3ccccc23)ccc1F)N1CCN(C(=O)C2CC2)CC1` + Nc1ccc(C#CCN(C(=O)Cc2ncc(C(F)(F)F)cc2C(F)(F)F)c2ccc(F)cc2)nn1, the viability, T/C was 91.3%.

Still in this test, the particulars now being: second compound 0.1 µM; first compound 3.16 µM; stronger effect = lower value.
Take `CNCc1ccc(-c2[nH]c3cc(F)cc4c3c2CCNC4=O)cc1` + Nc1ccc(C#CCN(C(=O)Cc2ncc(C(F)(F)F)cc2C(F)(F)F)c2ccc(F)cc2)nn1: the viability, T/C was 94.3%.

As to `O=C(c1cc(Cc2n[nH]c(=O)c3ccccc23)ccc1F)N1CCN(C(=O)C2CC2)CC1` + Nc1ccc(C#CCN(C(=O)Cc2ncc(C(F)(F)F)cc2C(F)(F)F)c2ccc(F)cc2)nn1, the viability, T/C is 82.7%.

The test is the same for the next values; noted with them: second compound 0.1 µM; first compound 10 µM; stronger effect = lower value.
As for `CNCc1ccc(-c2[nH]c3cc(F)cc4c3c2CCNC4=O)cc1` + Nc1ccc(C#CCN(C(=O)Cc2ncc(C(F)(F)F)cc2C(F)(F)F)c2ccc(F)cc2)nn1, the viability, T/C was 88.5%.

For the compound `O=C(c1cc(Cc2n[nH]c(=O)c3ccccc23)ccc1F)N1CCN(C(=O)C2CC2)CC1` + Nc1ccc(C#CCN(C(=O)Cc2ncc(C(F)(F)F)cc2C(F)(F)F)c2ccc(F)cc2)nn1, the viability, T/C was 67.1%.

Still in this test, the particulars now being: second compound 0.316 µM; first compound 0.00316 µM; stronger effect = lower value.
As to `C=CCn1c(=O)c2cnc(Nc3ccc(N4CCN(C)CC4)cc3)nc2n1-c1cccc(C(C)(C)O)n1` + Nc1ccc(C#CCN(C(=O)Cc2ncc(C(F)(F)F)cc2C(F)(F)F)c2ccc(F)cc2)nn1, the viability, T/C was 95.1%.

On to `CCc1c2c(nc3ccc(O)cc13)-c1cc3c(c(=O)n1C2)COC(=O)[C@]3(O)CC` + Nc1ccc(C#CCN(C(=O)Cc2ncc(C(F)(F)F)cc2C(F)(F)F)c2ccc(F)cc2)nn1, for which the viability, T/C was 69.5%.

Staying with this test, now noted: second compound 0.316 µM; first compound 0.01 µM; stronger effect = lower value.
Regarding `C=CCn1c(=O)c2cnc(Nc3ccc(N4CCN(C)CC4)cc3)nc2n1-c1cccc(C(C)(C)O)n1` + Nc1ccc(C#CCN(C(=O)Cc2ncc(C(F)(F)F)cc2C(F)(F)F)c2ccc(F)cc2)nn1, the viability, T/C is 90.7%.

Consider `CCc1c2c(nc3ccc(O)cc13)-c1cc3c(c(=O)n1C2)COC(=O)[C@]3(O)CC` + Nc1ccc(C#CCN(C(=O)Cc2ncc(C(F)(F)F)cc2C(F)(F)F)c2ccc(F)cc2)nn1, for which the viability, T/C was 56.3%.

Still in this test, the particulars now being: second compound 0.316 µM; first compound 0.0316 µM; stronger effect = lower value.
Regarding `C=CCn1c(=O)c2cnc(Nc3ccc(N4CCN(C)CC4)cc3)nc2n1-c1cccc(C(C)(C)O)n1` + Nc1ccc(C#CCN(C(=O)Cc2ncc(C(F)(F)F)cc2C(F)(F)F)c2ccc(F)cc2)nn1, the viability, T/C is 98.8%.

For `CCc1c2c(nc3ccc(O)cc13)-c1cc3c(c(=O)n1C2)COC(=O)[C@]3(O)CC` + Nc1ccc(C#CCN(C(=O)Cc2ncc(C(F)(F)F)cc2C(F)(F)F)c2ccc(F)cc2)nn1, the viability, T/C is 61.3%.

`CNCc1ccc(-c2[nH]c3cc(F)cc4c3c2CCNC4=O)cc1` + Nc1ccc(C#CCN(C(=O)Cc2ncc(C(F)(F)F)cc2C(F)(F)F)c2ccc(F)cc2)nn1: the viability, T/C is 95.8%.

With `O=C(c1cc(Cc2n[nH]c(=O)c3ccccc23)ccc1F)N1CCN(C(=O)C2CC2)CC1` + Nc1ccc(C#CCN(C(=O)Cc2ncc(C(F)(F)F)cc2C(F)(F)F)c2ccc(F)cc2)nn1, the viability, T/C is 102%.

Still in this test, the particulars now being: second compound 0.316 µM; first compound 0.1 µM; stronger effect = lower value.
In the case of `C=CCn1c(=O)c2cnc(Nc3ccc(N4CCN(C)CC4)cc3)nc2n1-c1cccc(C(C)(C)O)n1` + Nc1ccc(C#CCN(C(=O)Cc2ncc(C(F)(F)F)cc2C(F)(F)F)c2ccc(F)cc2)nn1, the viability, T/C is 105%.

For the compound `CCc1c2c(nc3ccc(O)cc13)-c1cc3c(c(=O)n1C2)COC(=O)[C@]3(O)CC` + Nc1ccc(C#CCN(C(=O)Cc2ncc(C(F)(F)F)cc2C(F)(F)F)c2ccc(F)cc2)nn1, the viability, T/C was 57.2%.

Turning to `CNCc1ccc(-c2[nH]c3cc(F)cc4c3c2CCNC4=O)cc1` + Nc1ccc(C#CCN(C(=O)Cc2ncc(C(F)(F)F)cc2C(F)(F)F)c2ccc(F)cc2)nn1, the viability, T/C was 105%.

Turning to `O=C(c1cc(Cc2n[nH]c(=O)c3ccccc23)ccc1F)N1CCN(C(=O)C2CC2)CC1` + Nc1ccc(C#CCN(C(=O)Cc2ncc(C(F)(F)F)cc2C(F)(F)F)c2ccc(F)cc2)nn1, the viability, T/C was 98%.

The term viability, T/C denotes the ratio of treated to control.
